Values after ≈ are worked out from the molar mass of the structure shown. Where two headings read alike, the source gives them in different places.
Columns and labels:
[1] = tested on: Escherichia coli ATCC 25922; assay: Minimum inhibitory concentration, broth micro-dilution (CLSI), E. coli; assay type: cell-based; conditions: Escherichia coli, ATCC25922, 22 h, 35° C., 22 hours
[2] = tested on: Escherichia coli MC4100 harboring the IMP4213 (E. coli IMP); assay: microbe, parasite or virus in culture; assay type: cell-based; conditions: Escherichia coli, 22 h, read-out: MIC (μg/mL) E. coli IMP, E. coli MC4100 IMP4213, increased outer-membrane permeability; 35° C., 22 hours
Outline: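 Broth micro-dilution per CLSI in cation-adjusted Mueller Hinton Broth with 0.002% Tween-80; E. coli MC4100 carries IMP4213, raising outer-membrane permeability. Compounds tested as 2-fold serial dilutions (10 concentrations) from 4 μg/mL (protocol 2) or 0.5 μg/mL (protocol 3); inoculum OD600 0.0005, 35° C for 22 hours.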

[3] = target: T1, SpsB (Staphylococcus aureus signal peptidase) (Staphylococcus aureus, UniProt P0A070); assay: cell-based; assay type: biochemical; conditions: SpsB IC50, whole-cell S. aureus (USA300 background, overexpressing SpsB) as SpsB source; fluorogenic peptide substrate, kinetic read 30 min
T1 construct: This assay uses a suspension of Staphylococcus aureus cells as a source of SpsB instead of recombinant SpsB protein; endogenous in cells; host or cells: S. aureus, USA300 background, overexpressing SpsB (whole-cell suspension from frozen pellets)
T1 sequence (P0A070 whole entry): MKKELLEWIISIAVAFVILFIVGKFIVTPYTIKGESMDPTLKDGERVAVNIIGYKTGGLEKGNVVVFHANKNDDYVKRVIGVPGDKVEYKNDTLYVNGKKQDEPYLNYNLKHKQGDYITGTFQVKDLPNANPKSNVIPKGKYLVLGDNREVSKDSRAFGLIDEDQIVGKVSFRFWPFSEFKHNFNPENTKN
Outline: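 Whole S. aureus cells (USA300, overexpressing SpsB) in PBS with MgCl2, CaCl2 and 0.1% Tween-80 served as enzyme source, mixed with 20 μM stock of (Dabcyl)βAla-KPAKAAE(Edans) substrate before use. Fluorescence (ex 340/em 490 nm) read kinetically over 30 min. IC50 from reaction rate versus 11-point inhibitor concentration.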

[4] = tested on: Methicillin Resistant Staphylococcus aureus strain USA 300, NRS384; assay: Minimum inhibitory concentration, broth micro-dilution (CLSI), S. aureus; assay type: cell-based; conditions: Staphylococcus aureus, MRSA / NRS 384 / USA300, 22 h, 35° C., 22 hours
Outline: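 Colonies grown 20 hours at 35° C were suspended in cation-adjusted Mueller Hinton Broth with 0.002% Tween-80. Cells were then added to 2-fold compound dilutions starting at 4 or 0.5 μg/mL, at OD600 0.0005.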

[5] = E. coli ATCC 25922, read-out: MIC (μg/mL) E. coli
[6] = MRSA USA 300 NRS384, read-out: MIC (μg/mL) S. aureus
[7] = read-out: MIC (μg/mL) E. coli, E. coli ATCC 25922
[8] = read-out: MIC (μg/mL) S. aureus, MRSA USA 300 NRS384

Row | SMILES | MIC [1, 5] [µg/mL] | MIC [2] [µg/mL] | IC50 [3] [nM] | MIC [4, 6] [µg/mL] | MIC [1, 7] [µg/mL] | MIC [4, 8] [µg/mL]
1 | CCCCCCCCCNC(=O)CCC(=O)N[C@@H](CCN)C(=O)N(C)[C@@H]1C(=O)N[C@@H](C)C(=O)N[C@H](C(=O)NCC#N)Cc2ccc(OCCN)c(c2)-c2cc1ccc2OCCN [Compound 369] | 4 (≈ 4.63 µM) | 0.063 (≈ 0.073 µM) | 0.47 | 0.063 (≈ 0.073 µM) |  | 
2 | CCCCc1ccc(C(=O)NCC(=O)N[C@@H](CCN)C(=O)N(C)[C@@H]2C(=O)N[C@@H](C)C(=O)N[C@H](C(=O)NCC#N)Cc3ccc(OCCN)c(c3)-c3cc2ccc3OCCN)c(C)c1 [Compound 370] |  | 0.13 (≈ 0.15 µM) | 1.1 |  | 16 (≈ 18.4 µM) | 0.19 (≈ 0.219 µM)
3 | CCCCc1ccc(C(=O)NCC(=O)NCC(=O)N[C@@H](CCN)C(=O)N(C)[C@@H]2C(=O)N[C@@H](C)C(=O)N[C@H](C(=O)NCC#N)Cc3ccc(OCCN)c(c3)-c3cc2ccc3OCCN)c(C)c1 [Compound 371] |  | 0.5 (≈ 0.54 µM) | 1.3 |  | 32 (≈ 34.6 µM) | 0.25 (≈ 0.27 µM)
4 | CCCCCCCCCC(=O)NCC(=O)N[C@@H](CCN)C(=O)N(C)[C@@H]1C(=O)N[C@@H](C)C(=O)N[C@H](C(=O)NCC#N)Cc2ccc(OCCN)c(c2)-c2cc1ccc2OCCN [Compound 372] |  | 0.094 (≈ 0.111 µM) | 0.47 |  | 8 (≈ 9.42 µM) | 0.13 (≈ 0.153 µM)
5 | CCCCCCCCCC(=O)N[C@@H](C)C(=O)N[C@@H](CCN)C(=O)N(C)[C@@H]1C(=O)N[C@@H](C)C(=O)N[C@H](C(=O)NCC#N)Cc2ccc(OCCN)c(c2)-c2cc1ccc2OCCN [Compound 373] |  | 0.063 (≈ 0.073 µM) | 0.88 |  | 4 (≈ 4.63 µM) | 0.19 (≈ 0.22 µM)
6 | CCCCc1ccc(NC(=O)CCC(=O)N[C@@H](CCN)C(=O)N(C)[C@@H]2C(=O)N[C@@H](C)C(=O)N[C@H](C(=O)NCC#N)Cc3ccc(OCCN)c(c3)-c3cc2ccc3OCCN)c(C)c1 [Compound 377] | 8 (≈ 9.06 µM) | 0.13 (≈ 0.147 µM) | 1 | 0.13 (≈ 0.147 µM) |  | 
7 | CCCCCCCCCC(=O)N[C@@H](CCO)C(=O)N[C@@H](CCN)C(=O)N(C)[C@@H]1C(=O)N[C@@H](C)C(=O)N[C@H](C(=O)NCC#N)Cc2ccc(OCCN)c(c2)-c2cc1ccc2OCCN [Compound 378] |  | 0.25 (≈ 0.28 µM) | 0.87 |  | 24 (≈ 26.9 µM) | 0.13 (≈ 0.146 µM)
8 | CCCCCCCCCC(=O)N[C@H](CCO)C(=O)N[C@@H](CCN)C(=O)N(C)[C@@H]1C(=O)N[C@@H](C)C(=O)N[C@H](C(=O)NCC#N)Cc2ccc(OCCN)c(c2)-c2cc1ccc2OCCN [Compound 379] |  | 0.25 (≈ 0.28 µM) | 0.89 |  | 32 (≈ 35.8 µM) | 0.25 (≈ 0.28 µM)
9 | CCCCc1ccc(C(=O)N[C@H](CCO)C(=O)N[C@@H](CCN)C(=O)N(C)[C@@H]2C(=O)N[C@@H](C)C(=O)N[C@H](C(=O)NCC#N)Cc3ccc(OCCN)c(c3)-c3cc2ccc3OCCN)c(C)c1 [Compound 381] |  | 0.5 (≈ 0.548 µM) | 2.9 |  | 64 (≈ 70.1 µM) | 0.5 (≈ 0.548 µM)
10 | CCCCCCCc1ccc(C(=O)N[C@@H](CO)C(=O)N[C@@H](CCN)C(=O)N(C)[C@@H]2C(=O)N[C@@H](C)C(=O)N[C@H](C(=O)NCC#N)Cc3ccc(OCCN)c(c3)-c3cc2ccc3OCCN)cc1 [Compound 383] |  | 0.023 (≈ 0.0248 µM) | 0.88 |  | 4 (≈ 4.31 µM) | 0.018 (≈ 0.0194 µM)
11 | CCCCCCCCCCCC(=O)N[C@@H](CO)C(=O)N[C@@H](CCN)C(=O)N(C)[C@@H]1C(=O)N[C@@H](C)C(=O)N[C@H](C(=O)NCC#N)Cc2ccc(OCCN)c(c2)-c2cc1ccc2OCCN [Compound 384] |  | 0.031 (≈ 0.0342 µM) | 1.2 |  | 3 (≈ 3.31 µM) | 0.012 (≈ 0.0132 µM)
12 | CCCCCCCSc1ccc(C(=O)N[C@@H](CCN)C(=O)N(C)[C@@H]2C(=O)N[C@@H](C)C(=O)N[C@H](C(=O)NCC#N)Cc3ccc(OCCN)c(c3)-c3cc2ccc3OCCN)c(C)c1 [Compound 389] | 0.25 (≈ 0.282 µM) | 0.031 (≈ 0.035 µM) | 0.81 | 0.063 (≈ 0.0711 µM) |  | 
13 | CCCCCCCS(=O)(=O)c1ccc(C(=O)N[C@@H](CCN)C(=O)N(C)[C@@H]2C(=O)N[C@@H](C)C(=O)N[C@H](C(=O)NCC#N)Cc3ccc(OCCN)c(c3)-c3cc2ccc3OCCN)c(C)c1 [Compound 390] | 3 (≈ 3.27 µM) | 0.031 (≈ 0.0338 µM) | 1.1 | 0.13 (≈ 0.142 µM) |  | 
14 | CCCCCCSc1ccc(C(=O)N[C@@H](CCN)C(=O)N(C)[C@@H]2C(=O)N[C@@H](C)C(=O)N[C@H](C(=O)NCC#N)Cc3ccc(OCCN)c(c3)-c3cc2ccc3OCCN)c(C)c1 [Compound 391] | 0.5 (≈ 0.573 µM) | 0.016 (≈ 0.0183 µM) | 0.99 | 0.047 (≈ 0.0539 µM) |  | 

Source: patent US20180327367A1, “MACROCYCLIC BROAD SPECTRUM ANTIBIOTICS” (priority 2015, published 2018)
